In patent publication US11420970B1 (NOVARTIS AG, priority 2019, dated 2022) one finds IC50 data, which are given here for 21 compounds.

Assay [1] deals with cellular H3K36me2 level in multiple myeloma cell line KMS11 (t(4;14)+). The assay can be described thus: H3K36me2 cellular ELISA assay in KMS11-Par line. The following applies: Homo sapiens, KMS-11; KMS11-Par line, ELISA, 72 hours; read-out: H3K36me2 ELISA in KMS11-Par. It counts as cell-based. The gist of the method:
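KMS11 cells were seeded a day ahead at 1,250 per well in Opti-MEM with B-27/N2, then treated with compound for 72 h. Histones were acid-extracted with 0.4M HCl, and H3K36me2 and total H3 were read by chemiluminescent ELISA. Viability was checked with CellTiter-Glo on a parallel plate in maintenance media.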

The subject of assay [2] is cellular H3K36me2 level in thyroid carcinoma cell line CGTH-W-1 (NSD2 E1099K). As to the kind of experiment: H3K36me2 cellular ELISA assay in CGTH-W-1 line. The assay is classed as cell-based. The following applies: Homo sapiens, CGTH-W-1, 72 h, read-out: H3K36me2 ELISA in CGTH-W-1. The gist of the method:
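CGTH-W-1 thyroid carcinoma cells (NSD2 E1099K gain-of-function) exposed to compound for 72 hours. Histone-bound plates probed for H3K36me2 and total H3 by chemiluminescent ELISA. Viability checked on a parallel plate with CellTiter-Glo.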

The target in another assay is NSD2 [1-1365] (Homo sapiens (Human), UniProt O96028). As to the kind of experiment: LC-MS/MS-based NSD2 enzymatic assay (SAH production). The assay is classed as biochemical. The note with it: read-out: NSD2 IC50. The gist of the method:
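Full-length NSD2 [1-1365] (8 nM final) with 1 μM SAM and 400 nM mouse-liver nucleosome in Tris pH 8.0 buffer; inhibitor preincubated 20 min with enzyme/SAM before nucleosome addition. Reaction 90 min at room temperature, TFA-quenched; SAH quantified by LC-MS/MS against d4-SAH internal standard and SAH standard curve.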

Sequence of NSD2 [1-1365] (O96028 whole entry): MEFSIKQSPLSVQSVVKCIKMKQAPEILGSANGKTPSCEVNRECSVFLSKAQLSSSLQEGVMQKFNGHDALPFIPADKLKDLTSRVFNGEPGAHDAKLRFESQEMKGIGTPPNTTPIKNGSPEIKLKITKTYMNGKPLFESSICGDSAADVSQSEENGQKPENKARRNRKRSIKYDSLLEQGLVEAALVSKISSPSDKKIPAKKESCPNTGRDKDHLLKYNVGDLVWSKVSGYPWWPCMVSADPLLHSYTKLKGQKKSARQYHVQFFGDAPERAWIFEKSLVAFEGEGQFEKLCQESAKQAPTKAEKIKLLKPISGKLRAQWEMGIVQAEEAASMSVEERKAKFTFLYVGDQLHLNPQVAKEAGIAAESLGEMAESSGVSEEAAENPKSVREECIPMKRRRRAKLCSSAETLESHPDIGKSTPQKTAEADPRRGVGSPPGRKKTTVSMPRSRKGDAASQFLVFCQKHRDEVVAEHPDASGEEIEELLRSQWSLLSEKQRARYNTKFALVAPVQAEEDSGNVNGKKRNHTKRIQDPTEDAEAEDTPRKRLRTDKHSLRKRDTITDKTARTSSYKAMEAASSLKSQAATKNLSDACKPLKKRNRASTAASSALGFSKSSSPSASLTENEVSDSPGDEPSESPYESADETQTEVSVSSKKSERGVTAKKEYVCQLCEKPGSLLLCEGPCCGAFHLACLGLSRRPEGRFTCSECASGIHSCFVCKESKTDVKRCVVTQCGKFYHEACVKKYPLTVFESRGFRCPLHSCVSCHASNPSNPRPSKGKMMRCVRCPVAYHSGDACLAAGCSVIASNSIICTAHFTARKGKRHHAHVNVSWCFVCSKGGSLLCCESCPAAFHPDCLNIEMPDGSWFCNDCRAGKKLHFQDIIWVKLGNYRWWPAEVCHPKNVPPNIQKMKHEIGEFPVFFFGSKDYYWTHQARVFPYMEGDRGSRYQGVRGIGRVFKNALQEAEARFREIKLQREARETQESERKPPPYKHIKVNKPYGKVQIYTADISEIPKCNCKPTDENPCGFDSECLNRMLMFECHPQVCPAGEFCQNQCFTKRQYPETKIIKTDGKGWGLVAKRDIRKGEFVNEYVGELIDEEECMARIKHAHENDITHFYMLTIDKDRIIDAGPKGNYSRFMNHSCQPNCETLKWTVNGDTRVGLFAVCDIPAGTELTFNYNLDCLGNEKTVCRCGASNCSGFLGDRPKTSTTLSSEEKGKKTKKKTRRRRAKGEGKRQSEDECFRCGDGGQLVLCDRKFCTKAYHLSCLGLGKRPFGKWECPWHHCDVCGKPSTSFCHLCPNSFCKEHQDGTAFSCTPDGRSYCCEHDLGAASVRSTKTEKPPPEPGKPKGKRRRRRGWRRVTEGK

Take `Nc1ncnc2c1ncn2Cc1cc(-c2ccc(F)c(F)c2)ncc1N1CCC[C@](N)(c2nc(Cl)ccc2F)C1` [Example 192, (R)-9-((5-(3-amino-3-(6-chloro-3-fluoropyridin-2-yl)piperidin-1-yl)-2-(3,4-difluorophenyl)pyridin-4-yl)methyl)-9H-purin-6-amine]: the IC50 in assay [1] is 2180 nM; in assay [2] it was 731 nM; on NSD2 [1-1365], 10 to 1000 nM.
For the compound `Nc1ncnc2c1ncn2Cc1cc(-c2ccc(F)cc2)ncc1N1CCCC(N)(c2ccc(F)c(CF)n2)C1` (stereo not drawn) [Example 193, 9-((5-(3-amino-3-(5-fluoro-6-(fluoromethyl)pyridin-2-yl)piperidin-1-yl)-2-(4-fluorophenyl)pyridin-4-yl)methyl)-9H-purin-6-amine], the IC50 was 1850 nM in assay [1], 876 nM in assay [2] and 10 to 1000 nM on NSD2 [1-1365].
As to `COc1ccc(-c2cc(Cn3cnc4c(N)ncnc43)c(N3CCC[C@](N)(c4cccc(Cl)n4)C3)cn2)nc1Cl` [Example 194, (R)-9-((5-(3-amino-3-(6-chloropyridin-2-yl)piperidin-1-yl)-6′-chloro-5′-methoxy-[2,2′-bipyridin]-4-yl)methyl)-9H-purin-6-amine], the IC50 in assay [1] is 3280 nM; in assay [2], 805 nM; on NSD2 [1-1365], 10 to 1000 nM.
The corresponding values for `Nc1ncnc2c1ncn2Cc1cc(-c2ccc(F)cn2)ncc1N1CCC[C@](N)(c2cccc(Cl)n2)C1` [Example 196, (R)-9-((5-(3-amino-3-(6-chloropyridin-2-yl)piperidin-1-yl)-5′-fluoro-[2,2′-bipyridin]-4-yl)methyl)-9H-purin-6-amine] are 2690 nM, 637 nM and 10 to 1000 nM.
As for `Nc1ncnc2c1ncn2Cc1cc(-c2ccc(F)c(F)c2)ncc1N1CCC[C@](N)(c2ccccn2)C1` [Example 198, (R)-9-((5-(3-amino-3-(pyridin-2-yl)piperidin-1-yl)-2-(3,4-difluorophenyl)pyridin-4-yl)methyl)-9H-purin-6-amine], the IC50 was 41 nM in assay [1], 17.7 nM in assay [2] and 1 to 10 nM at NSD2 [1-1365].
As to `Nc1ncnc2c1ncn2Cc1cc(-c2ccc(F)c(F)c2)ncc1N1CCC[C@](N)(c2cccc(Cl)n2)C1` [Example 200, (R)-9-((5-(3-amino-3-(6-chloropyridin-2-yl)piperidin-1-yl)-2-(3,4-difluorophenyl)pyridin-4-yl)methyl)-9H-purin-6-amine], the IC50 was 330 nM in assay [1], 180 nM in assay [2] and 1 to 10 nM on NSD2 [1-1365].
In the case of `Nc1ncnc2c1ncn2Cc1cc(-c2ccc(F)c(F)c2)ncc1N1CCC[C@](N)(c2cccc(F)n2)C1` [Example 201, (R)-9-((5-(3-amino-3-(6-fluoropyridin-2-yl)piperidin-1-yl)-2-(3,4-difluorophenyl)pyridin-4-yl)methyl)-9H-purin-6-amine], the IC50 was 286 nM in assay [1], 123 nM in assay [2] and 1 to 10 nM on NSD2 [1-1365].
Turning to `Nc1ncnc2c1ncn2Cc1cc(-c2ccc(F)c(F)c2)ncc1N1CCC[C@](N)(c2cc(O)cc(F)n2)C1` [Example 206, (R)-2-(3-amino-1-(4-((6-amino-9H-purin-9-yl)methyl)-6-(3,4-difluorophenyl)pyridin-3-yl)piperidin-3-yl)-6-fluoropyridin-4-ol], the IC50 in assay [1] was 1160 nM; in assay [2] it was 117 nM; on NSD2 [1-1365], 1 to 10 nM.
The corresponding values for `C[C@@H](F)c1cccc([C@@]2(N)CCCN(c3cnc(-c4ccc(F)cc4)cc3Cn3cnc4c(N)ncnc43)C2)n1` [Example 212, 9-((5-((R)-3-amino-3-(6-((R)-1-fluoroethyl)pyridin-2-yl)piperidin-1-yl)-2-(4-fluorophenyl)pyridin-4-yl)methyl)-9H-purin-6-amine] are 289 nM, 132 nM and 10 to 1000 nM.
The corresponding values for `COc1ccc(-c2cc(Cn3cnc4c(N)ncnc43)c(N3CCC[C@](N)(c4cccc(Cl)n4)C3)cn2)cc1F` [Example 213, (R)-9-((5-(3-amino-3-(6-chloropyridin-2-yl)piperidin-1-yl)-2-(3-fluoro-4-methoxyphenyl)pyridin-4-yl)methyl)-9H-purin-6-amine] are 387 nM, 258 nM and 1 to 10 nM.
On to `Nc1ncnc2c1ncn2Cc1cc(-c2ccc(F)c(F)c2)ncc1N1CCCC(N)(c2ccc(O)c(F)n2)C1` (stereo not drawn) [Example 214, 6-(3-amino-1-(4-((6-amino-9H-purin-9-yl)methyl)-6-(3,4-difluorophenyl)pyridin-3-yl)piperidin-3-yl)-2-fluoropyridin-3-ol], for which the IC50 in assay [1] was 2430 nM; in assay [2] it was 444 nM; on NSD2 [1-1365] it was 10 to 1000 nM.
In the case of `COc1ccc(-c2cc(Cn3cnc4c(N)ncnc43)c(N3CCC[C@](N)(c4ccc(F)c(Cl)n4)C3)cn2)cc1` [Example 216, (R)-9-((5-(3-amino-3-(6-chloro-5-fluoropyridin-2-yl)piperidin-1-yl)-2-(4-methoxyphenyl)pyridin-4-yl)methyl)-9H-purin-6-amine], the IC50 in assay [1] is 2570 nM; in assay [2], 1880 nM; on NSD2 [1-1365], 10 to 1000 nM.
As for `Nc1ncnc2c1ncn2Cc1cc(-c2ccc(F)c(F)c2)ncc1N1CCC[C@](N)(c2cc(O)cc(Cl)n2)C1` [Example 219, (R)-2-(3-amino-1-(4-((6-amino-9H-purin-9-yl)methyl)-6-(3,4-difluorophenyl)pyridin-3-yl)piperidin-3-yl)-6-chloropyridin-4-ol], the IC50 in assay [1] was 3450 nM; in assay [2], 407 nM; at NSD2 [1-1365], 1 to 10 nM.
In the case of `Nc1ncnc2c1ncn2Cc1cc(-c2ccc(F)cc2)ncc1N1CCC[C@](N)(c2ccc(F)c(Cl)n2)C1` [Example 221, (R)-9-((5-(3-amino-3-(6-chloro-5-fluoropyridin-2-yl)piperidin-1-yl)-2-(4-fluorophenyl)pyridin-4-yl)methyl)-9H-purin-6-amine], the IC50 in assay [1] was 1290 nM; in assay [2], 269 nM; on NSD2 [1-1365], 1 to 10 nM.
For `COc1ccc(-c2cc(Cn3cnc4c(N)ncnc43)c(N3CCC[C@](N)(c4cccc(Cl)n4)C3)cn2)nc1F` [Example 224, (R)-9-((5-(3-amino-3-(6-chloropyridin-2-yl)piperidin-1-yl)-6′-fluoro-5′-methoxy-[2,2′-bipyridin]-4-yl)methyl)-9H-purin-6-amine], the results for the IC50 (in assay [1]; in assay [2]; on NSD2 [1-1365]) were 1710 nM, 348 nM and 1 to 10 nM, respectively.
Taken in the same sequence, the figures for `Nc1ncnc2c1ncn2Cc1cc(-c2ccc(F)c(F)c2)ncc1N1CCC[C@](N)(c2cccc(CF)n2)C1` [Example 226, (R)-9-((5-(3-amino-3-(6-(fluoromethyl)pyridin-2-yl)piperidin-1-yl)-2-(3,4-difluorophenyl)pyridin-4-yl)methyl)-9H-purin-6-amine] were 169 nM, 66.8 nM and 1 to 10 nM.
Take `Nc1ncnc2c1ncn2Cc1cc(-c2ccc(F)c(F)c2)ncc1N1CCC[C@](N)(c2cccc(C(F)F)n2)C1` [Example 227, (R)-9-((5-(3-amino-3-(6-(difluoromethyl)pyridin-2-yl)piperidin-1-yl)-2-(3,4-difluorophenyl)pyridin-4-yl)methyl)-9H-purin-6-amine]: the figures for the IC50 (in assay [1]; in assay [2]; on NSD2 [1-1365]) were 302 nM, 133 nM and 10 to 1000 nM, respectively.
For the compound `Cc1ccc(-c2cc(Cn3cnc4c(N)ncnc43)c(N3CCCC(N)(c4cccc(Cl)n4)C3)cn2)cn1` (stereo not drawn) [Example 229, 9-((5-(3-amino-3-(6-chloropyridin-2-yl)piperidin-1-yl)-6′-methyl-[2,3′-bipyridin]-4-yl)methyl)-9H-purin-6-amine], the IC50 was 7490 nM in assay [1], 1970 nM in assay [2] and 10 to 1000 nM at NSD2 [1-1365].
Taken in the same sequence, the figures for `COc1ccc(Cl)nc1[C@@]1(N)CCCN(c2cnc(-c3ccc(F)c(F)c3)cc2Cn2cnc3c(N)ncnc32)C1` [Example 230, (R)-9-((5-(3-amino-3-(6-chloro-3-methoxypyridin-2-yl)piperidin-1-yl)-2-(3,4-difluorophenyl)pyridin-4-yl)methyl)-9H-purin-6-amine] were 9980 nM, 1650 nM and 10 to 1000 nM.
Taken in the same sequence, the figures for `COc1ncc(-c2cc(Cn3cnc4c(N)ncnc43)c(N3CCC[C@](N)(c4cccc(Cl)n4)C3)cn2)cc1F` [Example 231, (R)-9-((5-(3-amino-3-(6-chloropyridin-2-yl)piperidin-1-yl)-5′-fluoro-6′-methoxy-[2,3′-bipyridin]-4-yl)methyl)-9H-purin-6-amine] were 7440 nM, 2150 nM and 10 to 1000 nM.
For `Cc1cccc([C@@]2(N)CCCN(c3cnc(-c4ccc(F)c(F)c4)cc3Cn3cnc4c(N)ncnc43)C2)[n+]1[O-]` [Example 232, (R)-2-(3-amino-1-(4-((6-amino-9H-purin-9-yl)methyl)-6-(3,4-difluorophenyl)pyridin-3-yl)piperidin-3-yl)-6-methylpyridine 1-oxide], the figures for the IC50 (in assay [1]; in assay [2]; at NSD2 [1-1365]) were 7650 nM, 1470 nM and 10 to 1000 nM, respectively.
